Results on 15 compounds are retold here after US11760722B2 (priority 2022, dated 2023).

One assay relates to SARS-CoV-2 Delta USA/MD-HP05647/2021 (Lineage B.1.617.2). In words: microbe, parasite or virus in culture. The class given is cell-based. The note with it: Severe acute respiratory syndrome coronavirus 2, Vero C1008, 4 h; read-out: Vero E6 Delta CPE/EC50.
With `CC(C)(C)[C@H](NC(=O)C(F)(F)C(F)(F)Cl)C(=O)N1C[C@H]2[C@@H]([C@H]1C(=O)N[C@H](C#N)C[C@@H]1CCNC1=O)C2(C)C` [Compound 80], the EC50 amounted to 0.0202 µM.
As for `CC(C)(C)[C@H](NS(=O)(=O)c1cccc2ccccc12)C(=O)N1C[C@H]2[C@@H]([C@H]1C(=O)N[C@H](C#N)C[C@@H]1CCNC1=O)C2(C)C` [Compound 85], the EC50 is less than 0.0045 µM.
Consider `CC(C)(C)[C@H](NS(=O)(=O)c1ccc(Cl)s1)C(=O)N1C[C@H]2[C@@H]([C@H]1C(=O)N[C@H](C#N)C[C@@H]1CCNC1=O)C2(C)C` [Compound 54], for which the EC50 was less than 0.0045 µM.
On to `C=C(F)C(=O)N[C@H](C(=O)N1C[C@H]2[C@@H]([C@H]1C(=O)N[C@H](C#N)C[C@@H]1CCNC1=O)C2(C)C)C(C)(C)C` [Compound 66], for which the EC50 was found to be 0.0935 µM.
Take `CC(C)(C)NC(=O)N[C@H](C(=O)N1C[C@H]2[C@@H]([C@H]1C(=O)N[C@H](C#N)C[C@@H]1CCNC1=O)C2(C)C)C(C)(C)C` [Compound 87]: the EC50 amounted to 0.577 µM.
Same read-out and setting: as for `CC(C)(C)[C@H](NC(=O)C(F)(Cl)C(F)(F)F)C(=O)N1C[C@H]2[C@@H]([C@H]1C(=O)N[C@H](C#N)C[C@@H]1CCNC1=O)C2(C)C` (some centres unmarked) [Compound 75], the figure is 0.045 µM; as for `Cc1ccc(S(=O)(=O)N[C@H](C(=O)N2C[C@H]3[C@@H]([C@H]2C(=O)N[C@H](C#N)C[C@@H]2CCNC2=O)C3(C)C)C(C)(C)C)cc1` [Compound 96], less than 0.0045 µM; as for `CC(C)(C)[C@H](NS(=O)(=O)c1ccccc1)C(=O)N1C[C@H]2[C@@H]([C@H]1C(=O)N[C@H](C#N)C[C@@H]1CCNC1=O)C2(C)C` [Compound 95], 0.0107 µM.
Consider `Cc1ccc(S(=O)(=O)N[C@H](C(=O)N2C[C@H]3[C@@H]([C@H]2C(=O)N[C@H](C#N)C[C@@H]2CCNC2=O)C3(C)C)C(C)(C)C)s1` [Compound 118], for which the EC50 worked out at 0.0235 µM.
On to `CC(C)(C)[C@H](NS(=O)(=O)c1ccc(C(F)(F)F)cc1)C(=O)N1C[C@H]2[C@@H]([C@H]1C(=O)N[C@H](C#N)C[C@@H]1CCNC1=O)C2(C)C` [Compound 90], for which the EC50 was 0.0034 µM.
On to `CN(C)S(=O)(=O)N[C@H](C(=O)N1C[C@H]2[C@@H]([C@H]1C(=O)N[C@H](C#N)C[C@@H]1CCNC1=O)C2(C)C)C(C)(C)C` [Compound 47, (1R,2S,5S)—N—((S)-1-cyano-2-((S)-2-oxopyrrolidin-3-yl)ethyl)-3-((S)-2-((N,N-dimethylsulfamoyl)amino)-3,3-dimethylbutanoyl)-6,6-dimethyl-3-azabicyclo[3.1.0]hexane-2-carboxamide], for which the EC50 worked out at 0.242 µM.
Same read-out and setting: the value for `CC(C)(C)[C@H](NC(=O)NC1(CS(=O)(=O)C(C)(C)C)CCCCC1)C(=O)N1C[C@H]2[C@@H]([C@H]1C(=O)N[C@H](C#N)C[C@@H]1CCNC1=O)C2(C)C` [Compound 16] was 2.98 µM; that for `CC(C)(C)[C@H](NS(=O)(=O)c1ccc(OC(F)(F)F)cc1)C(=O)N1C[C@H]2[C@@H]([C@H]1C(=O)N[C@H](C#N)C[C@@H]1CCNC1=O)C2(C)C` [Compound 89] was 0.0617 µM; that for `CN(C)[C@@H]1C[C@@H](C(=O)N[C@H](C#N)C[C@@H]2CCNC2=O)N(C(=O)[C@@H](NC(=O)C(F)(F)F)C(C)(C)C)C1` [Compound 116] was 4 µM.
Regarding `CC(C)(C)c1ccc(S(=O)(=O)N[C@H](C(=O)N2C[C@H]3[C@@H]([C@H]2C(=O)N[C@H](C#N)C[C@@H]2CCNC2=O)C3(C)C)C(C)(C)C)s1` [Compound 117], the EC50 turned out to be 0.337 µM.

The assay is the same for the next values; noted with them: read-out: Vero E6 Delta CPE/EC50.
As to `C=C(F)C(=O)N[C@H](C(=O)N1C[C@H]2[C@@H]([C@H]1C(=O)N[C@H](C#N)C[C@@H]1CCNC1=O)C2(C)C)C(C)(C)C` [Compound 66], the EC50 stood at 0.0978 µM.
As to `CC(C)(C)[C@H](NC(=O)C(F)(Cl)C(F)(F)F)C(=O)N1C[C@H]2[C@@H]([C@H]1C(=O)N[C@H](C#N)C[C@@H]1CCNC1=O)C2(C)C` (some centres unmarked) [Compound 75], the EC50 worked out at 0.05 µM.
